What all share (assay type): functional
For experiment [1], the system named is Candida parapsilosis. In words: Antifungal activity against Candida parapsilosis. Conditions: Lodderomyces parapsilosis.
For experiment [2], the system named is Candida albicans. Briefly: Potency index, ratio of fluconazole MIC to test compound MIC for Candida albicans.
Experiment [3] has as its system Kluyveromyces marxianus. In words: Antifungal activity against Candida kefyr. Conditions: Kluyveromyces marxianus.
Experiment [4] concerns Candida tropicalis. Briefly: Antifungal activity against Candida tropicalis. Conditions: Candida tropicalis.
For experiment [5], the system named is Cryptococcus neoformans. Briefly: Antifungal activity against Cryptococcus neoformans. Conditions: Cryptococcus neoformans.
For experiment [6], the system named is Candida albicans. Briefly: Antifungal activity against Candida albicans. Conditions: Candida albicans.
The subject of experiment [7] is Trichophyton rubrum. Briefly: Antifungal activity against Trichophyton rubrum. Conditions: Trichophyton rubrum.
Experiment [8] concerns Aspergillus fumigatus. Briefly: Antifungal activity against Aspergillus fumigatus. Conditions: Aspergillus fumigatus.
Experiment [9] has as its system Candida albicans. In words: Antifungal activity against Candida albicans ATCC 76615 after 24 hrs by microbroth dilution method. Conditions: ATCC 76615, 24 h. On the technique in general: Broth dilution looks for growth in wells or tubes with falling amounts of substance.

8 molecules from ChEMBL document CHEMBL4396865, “Current advances of triazole alcohols derived from fluconazole: Design, in vitro and in silico studies” (2019) can be followed below.

In brackets after ≈: the same amount, converted by molar mass.

For orientation: MIC80 means an inhibitory concentration at the 80% level, which refers to growth in some studies and to a panel of isolates in others. High values mean lower susceptibility, low ones higher susceptibility.

On to `OC(CN1CCC(OCc2ccccc2)CC1)(Cn1cncn1)c1ccc(F)cc1F` (configuration not stated), for which the MIC80 in experiment [1], in experiment [3], in [4], in experiment [5], in experiment [6] and in [7] was 0.01 to 0.56 µM (≈ 0.00428 to 0.24 µg/mL) in each case. For the same molecule, the MIC80 in experiment [8] and in experiment [9] was 0.01 to 0.56 µM (≈ 0.00428 to 0.24 µg/mL) each time. In [2], the Ratio was found to be 82.
Turning to `OC(CN1CCC(OCc2ccccc2Cl)CC1)(Cn1cncn1)c1ccc(F)cc1F` (configuration not stated), the MIC80 in experiment [1] is 0.01 to 2.33 µM (≈ 0.00463 to 1.08 µg/mL); in [3], 0.01 to 2.33 µM (≈ 0.00463 to 1.08 µg/mL); in [4], 0.01 to 2.33 µM (≈ 0.00463 to 1.08 µg/mL); in experiment [5], 0.01 to 2.33 µM (≈ 0.00463 to 1.08 µg/mL); in experiment [6], 0.01 µM (≈ 0.00463 µg/mL); in [7], 0.03 to 0.15 µM (≈ 0.0139 to 0.0694 µg/mL). The MIC80 in experiment [8] was 0.55 to 2.33 µM (≈ 0.255 to 1.08 µg/mL); in experiment [9], 0.01 to 2.33 µM (≈ 0.00463 to 1.08 µg/mL). In experiment [2], the Ratio stood at 82.
As for `OC(CN1CCC(OCc2ccc(Cl)cc2Cl)CC1)(Cn1cncn1)c1ccc(F)cc1F` (configuration not stated), the MIC80 in [1] was 0.01 to 2.33 µM (≈ 0.00497 to 1.16 µg/mL); in experiment [3], 0.01 to 2.33 µM (≈ 0.00497 to 1.16 µg/mL); in [4] it was 0.01 to 2.33 µM (≈ 0.00497 to 1.16 µg/mL); in experiment [5] it was 0.01 to 2.33 µM (≈ 0.00497 to 1.16 µg/mL); in [6] it was 0.01 µM (≈ 0.00497 µg/mL); in experiment [7] it was 0.03 to 0.15 µM (≈ 0.0149 to 0.0746 µg/mL). Further, the MIC80 in experiment [8] was 0.55 to 2.33 µM (≈ 0.274 to 1.16 µg/mL); in experiment [9], 0.01 to 2.33 µM (≈ 0.00497 to 1.16 µg/mL). In experiment [2], the Ratio amounted to 82.
Regarding `OC(CN1CCC(OCc2ccc(Cl)c(Cl)c2)CC1)(Cn1cncn1)c1ccc(F)cc1F` (configuration not stated), the MIC80 is 0.01 to 2.33 µM (≈ 0.00497 to 1.16 µg/mL) in experiment [1]; 0.01 to 2.33 µM (≈ 0.00497 to 1.16 µg/mL) in experiment [3]; 0.01 to 2.33 µM (≈ 0.00497 to 1.16 µg/mL) in experiment [4]; 0.01 to 2.33 µM (≈ 0.00497 to 1.16 µg/mL) in experiment [5]; 0.01 µM (≈ 0.00497 µg/mL) in [6]; 0.03 to 0.15 µM (≈ 0.0149 to 0.0746 µg/mL) in experiment [7]. The results for the MIC80 in [8] and in experiment [9] were 0.55 to 2.33 µM (≈ 0.274 to 1.16 µg/mL) and 0.01 to 2.33 µM (≈ 0.00497 to 1.16 µg/mL), respectively. For the same molecule, the Ratio in [2] is recorded as 82.
Consider `OC(CN1CCC(OCc2cccc(Cl)c2)CC1)(Cn1cncn1)c1ccc(F)cc1F` (configuration not stated), for which the MIC80 in experiment [1] is 0.01 to 2.33 µM (≈ 0.00463 to 1.08 µg/mL); in experiment [3], 0.01 to 2.33 µM (≈ 0.00463 to 1.08 µg/mL); in experiment [4], 0.01 to 2.33 µM (≈ 0.00463 to 1.08 µg/mL); in experiment [5], 0.01 to 2.33 µM (≈ 0.00463 to 1.08 µg/mL); in experiment [6], 0.01 µM (≈ 0.00463 µg/mL); in [7], 0.03 to 0.15 µM (≈ 0.0139 to 0.0694 µg/mL). Besides, the MIC80 in [8] lay within 0.55 to 2.33 µM (≈ 0.255 to 1.08 µg/mL); in [9], 0.01 to 2.33 µM (≈ 0.00463 to 1.08 µg/mL). Moreover, the Ratio in experiment [2] is 82.
On to `N#Cc1ccc(COC2CCN(CC(O)(Cn3cncn3)c3ccc(F)cc3F)CC2)cc1` (configuration not stated), for which the MIC80 was 0.01 to 2.33 µM (≈ 0.00453 to 1.06 µg/mL) in experiment [1]; 0.01 to 2.33 µM (≈ 0.00453 to 1.06 µg/mL) in experiment [3]; 0.01 to 2.33 µM (≈ 0.00453 to 1.06 µg/mL) in [4]; 0.01 to 2.33 µM (≈ 0.00453 to 1.06 µg/mL) in [5]; 0.01 µM (≈ 0.00453 µg/mL) in [6]; 0.03 to 0.15 µM (≈ 0.0136 to 0.068 µg/mL) in experiment [7]. Besides, the MIC80 in experiment [8] lay in the range of 0.55 to 2.33 µM (≈ 0.249 to 1.06 µg/mL); in experiment [9] it was 0.01 to 2.33 µM (≈ 0.00453 to 1.06 µg/mL). Besides, the Ratio in [2] is 82.
Turning to `OC(CN1CCC(OCc2cccc(Br)c2)CC1)(Cn1cncn1)c1ccc(F)cc1F` (configuration not stated), the MIC80 in experiment [1], in [3], in [4], in experiment [5], in [6] and in [7] was 0.01 to 0.56 µM (≈ 0.00507 to 0.284 µg/mL) throughout. Also, the MIC80 in [8] and in [9] was 0.01 to 0.56 µM (≈ 0.00507 to 0.284 µg/mL) throughout. In [2], the Ratio turned out to be 82.
On to `OC(CN1CCC(OCc2ccccc2F)CC1)(Cn1cncn1)c1ccc(F)cc1F` (configuration not stated), for which the MIC80 in experiment [1], in [3], in experiment [4], in experiment [5], in experiment [6] and in [7] was 0.01 to 0.56 µM (≈ 0.00446 to 0.25 µg/mL) throughout. Moreover, the MIC80 in experiment [8] and in [9] was 0.01 to 0.56 µM (≈ 0.00446 to 0.25 µg/mL) throughout. Moreover, the Ratio in experiment [2] is on record as 82.
